Experimental data taken from PubChem BioAssay AID330 (DTP/NCI, 2004).
Toxic doses and inconclusive results are not listed. How the source made its calls: active means survival T/C of 150% or more; inactive means T/C below 125% in these data.

Test system: P388 leukemia ip, CD2F1 mice, survival T/C
Assay: NCI In Vivo Anticancer Drug Screen. Data for tumor model P388 Leukemia (intraperitoneal) in CD2F1 (CDF1) mice
Conditions: endpoint: median survival time, higher = longer survival
Outline: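 Mice carrying the transplanted tumor received test compound or vehicle. Survival was recorded in each group, and the value is the treated-group measurement divided by that of the vehicle-treated control group.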

[1] = dose: 100.0 mg/kg/injection, schedule: Q04DX003 (ip), vehicle: saline with Tween-80
[2] = dose: 50.0 mg/kg/injection, schedule: Q04DX003 (ip), vehicle: saline with Tween-80
[3] = dose: 100.0 mg/kg/injection, schedule: Q01DX009 (ip), vehicle: saline with Tween-80
[4] = dose: 200.0 mg/kg/injection, schedule: Q01DX009 (ip), vehicle: saline with Tween-80
[5] = dose: 50.0 mg/kg/injection, schedule: Q01DX005 (ip), vehicle: saline
[6] = dose: 100.0 mg/kg/injection, schedule: Q01DX005 (ip), vehicle: saline
[7] = dose: 50.0 mg/kg/injection, schedule: Q01DX009 (ip), vehicle: saline with Tween-80
[8] = dose: 50.0 mg/kg/injection, schedule: Q01DX005 (ip), vehicle: Klucel (hydroxypropylcellulose) (HPC)
[9] = dose: 100.0 mg/kg/injection, schedule: Q01DX005 (ip), vehicle: Klucel (hydroxypropylcellulose) (HPC)
[10] = dose: 200.0 mg/kg/injection, schedule: Q01DX005 (ip), vehicle: Klucel (hydroxypropylcellulose) (HPC)
[11] = dose: 200.0 mg/kg/injection, schedule: Q01DX001 (ip), vehicle: Klucel (hydroxypropylcellulose) (HPC)
[12] = dose: 60.0 mg/kg/injection, schedule: Q01DX005 (ip), vehicle: saline with Tween-80
[13] = dose: 120.0 mg/kg/injection, schedule: Q01DX005 (ip), vehicle: saline with Tween-80
[14] = dose: 240.0 mg/kg/injection, schedule: Q01DX005 (ip), vehicle: saline with Tween-80

Measured: T/C

Oc1ccc(Cc2ccc(O)cc2)cc1
inactive: [1] 102 % of control | dose: 200.0 mg/kg/injection, schedule: Q04DX003 (ip), vehicle: saline with Tween-80 101 % of control | dose: 400.0 mg/kg/injection, schedule: Q04DX003 (ip), vehicle: saline with Tween-80 115 % of control

O=C(O)c1cc2ccccc2o1
inactive: dose: 25.0 mg/kg/injection, schedule: Q04DX003 (ip), vehicle: saline with Tween-80 100 % of control | [2] 104 % of control | [3] 95 % of control | [1] 104 % of control | [4] 95 % of control

c1cc2c(cc1CC1CCNC1)OCO2 (centres undefined)
inactive: dose: 5.0 mg/kg/injection, schedule: Q01DX009 (ip), vehicle: saline 95 % of control | dose: 10.0 mg/kg/injection, schedule: Q01DX009 (ip), vehicle: saline 100 % of control | dose: 20.0 mg/kg/injection, schedule: Q01DX009 (ip), vehicle: saline 95 % of control

CCN(CC)CCCC(C)Nc1c(C)cnc2cc(Cl)ccc12 (centres undefined)
inactive: [5] 98 % of control | [6] 108 % of control

Cc1[nH]c(=O)[nH]c(=O)c1CO
inactive: [7] 100 % of control | [3] 102 % of control | [4] 101 % of control | dose: 400.0 mg/kg/injection, schedule: Q01DX009 (ip), vehicle: saline with Tween-80 100 % of control

Cc1cc(=O)c2cc3c(cc2[nH]1)OCO3
inactive: [8] 106 % of control | [9] 100 % of control | [10] 100 % of control

CC1=C(CO)C(=O)OC(C(C)C2CCC3C4CC5OC56C(O)C(N5CCOCC5)CC(=O)C6(C)C4CCC23C)C1 (centres undefined)
inactive: dose: 8.25 mg/kg/injection, schedule: Q01DX005 (ip), vehicle: Klucel (hydroxypropylcellulose) (HPC) 103 % of control | dose: 16.5 mg/kg/injection, schedule: Q01DX005 (ip), vehicle: Klucel (hydroxypropylcellulose) (HPC) 99 % of control | dose: 33.0 mg/kg/injection, schedule: Q01DX005 (ip), vehicle: Klucel (hydroxypropylcellulose) (HPC) 97 % of control | dose: 66.0 mg/kg/injection, schedule: Q01DX005 (ip), vehicle: Klucel (hydroxypropylcellulose) (HPC) 97 % of control | dose: 132.0 mg/kg/injection, schedule: Q01DX005 (ip), vehicle: Klucel (hydroxypropylcellulose) (HPC) 103 % of control

CC(C)(C)N=C(CCC(C#N)(C#N)CCC(=NC(C)(C)C)Nc1ccc([N+](=O)[O-])cc1)Nc1ccc([N+](=O)[O-])cc1
inactive: [7] 98 % of control | [3] 95 % of control | [4] 88 % of control

CC1SCCCS1
inactive: dose: 50.0 mg/kg/injection, schedule: Q01DX009 (ip), vehicle: saline 98 % of control | dose: 100.0 mg/kg/injection, schedule: Q01DX009 (ip), vehicle: saline 98 % of control | dose: 200.0 mg/kg/injection, schedule: Q01DX009 (ip), vehicle: saline 97 % of control | dose: 400.0 mg/kg/injection, schedule: Q01DX009 (ip), vehicle: saline 97 % of control

CC(NC(=S)Nc1ccccc1)c1ccccc1 (centres undefined)
inactive: dose: 25.0 mg/kg/injection, schedule: Q04DX002 (ip), vehicle: Klucel (hydroxypropylcellulose) (HPC) 100 % of control | dose: 50.0 mg/kg/injection, schedule: Q04DX002 (ip), vehicle: Klucel (hydroxypropylcellulose) (HPC) 100 % of control | dose: 100.0 mg/kg/injection, schedule: Q04DX002 (ip), vehicle: Klucel (hydroxypropylcellulose) (HPC) 96 % of control

CCCN1C(=O)Cc2ccccc21
inactive: dose: 100.0 mg/kg/injection, schedule: Q01DX001 (ip), vehicle: Klucel (hydroxypropylcellulose) (HPC) 95 % of control | [11] 97 % of control | dose: 400.0 mg/kg/injection, schedule: Q01DX001 (ip), vehicle: Klucel (hydroxypropylcellulose) (HPC) 100 % of control

Cc1cc2c(c3c1C(=O)CC3)C(C)(C)CCC2(C)C
inactive: dose: 50.0 mg/kg/injection, schedule: Q01DX005 (ip), vehicle: saline with Tween-80 99 % of control | dose: 100.0 mg/kg/injection, schedule: Q01DX005 (ip), vehicle: saline with Tween-80 97 % of control | dose: 200.0 mg/kg/injection, schedule: Q01DX005 (ip), vehicle: saline with Tween-80 95 % of control

Cc1cc(C)c2c(c1N)C(=O)CCO2
inactive: dose: 7.5 mg/kg/injection, schedule: Q01DX005 (ip), vehicle: saline with Tween-80 96 % of control | dose: 15.0 mg/kg/injection, schedule: Q01DX005 (ip), vehicle: saline with Tween-80 100 % of control | dose: 30.0 mg/kg/injection, schedule: Q01DX005 (ip), vehicle: saline with Tween-80 102 % of control

CC(=O)Oc1ccccc1C(=O)OCC(=O)c1ccc2c(c1)Nc1ccccc1S2
inactive: dose: 1.56 mg/kg/injection, schedule: Q01DX001 (ip), vehicle: Klucel (hydroxypropylcellulose) (HPC) 93 % of control | dose: 3.13 mg/kg/injection, schedule: Q01DX001 (ip), vehicle: Klucel (hydroxypropylcellulose) (HPC) 95 % of control | dose: 6.25 mg/kg/injection, schedule: Q01DX001 (ip), vehicle: Klucel (hydroxypropylcellulose) (HPC) 90 % of control | dose: 50.0 mg/kg/injection, schedule: Q01DX001 (ip), vehicle: Klucel (hydroxypropylcellulose) (HPC) 87 % of control | [11] 94 % of control

C#CCNC(=S)N/N=C(\C)c1ccccn1
inactive: dose: 3.13 mg/kg/injection, schedule: Q01DX009 (ip), vehicle: saline with Tween-80 97 % of control | dose: 6.25 mg/kg/injection, schedule: Q01DX009 (ip), vehicle: saline with Tween-80 97 % of control | dose: 12.5 mg/kg/injection, schedule: Q01DX009 (ip), vehicle: saline with Tween-80 103 % of control

CNc1ccccc1C(=O)NCCCN
inactive: [8] 98 % of control | [9] 95 % of control | [10] 95 % of control

C=C(C(=O)OC)C(O)CC (centres undefined)
inactive: [5] 91 % of control | [6] 107 % of control | dose: 200.0 mg/kg/injection, schedule: Q01DX005 (ip), vehicle: saline 100 % of control

CC(=O)NC(C(=O)O)C(C)(C)S (centres undefined)
inactive: [8] 100 % of control | [9] 100 % of control | [10] 95 % of control

CCOC(=O)/C=C(/C)Sc1cc(O)ccc1O
inactive: [7] 102 % of control | [3] 111 % of control | [4] 109 % of control

COc1ccc(Cc2cc3c(cc2OC)OCO3)c(OC)c1
inactive: [12] 100 % of control | [13] 108 % of control | [14] 112 % of control

O=C1CCC(O)=C1C1=NCCCC1
inactive: dose: 100.0 mg/kg/injection, schedule: Q04DX002 (ip), vehicle: saline with Tween-80 94 % of control | dose: 200.0 mg/kg/injection, schedule: Q04DX002 (ip), vehicle: saline with Tween-80 108 % of control | dose: 400.0 mg/kg/injection, schedule: Q04DX002 (ip), vehicle: saline with Tween-80 101 % of control

C=C1C(=O)OC(CCCCCCCCCCCCC)C1C(=O)O (centres undefined)
inactive: dose: 0.25 mg/kg/injection, schedule: Q01DX009 (ip), vehicle: saline with Tween-80 99 % of control | dose: 0.5 mg/kg/injection, schedule: Q01DX009 (ip), vehicle: saline with Tween-80 101 % of control | dose: 1.0 mg/kg/injection, schedule: Q01DX009 (ip), vehicle: saline with Tween-80 100 % of control

CC1(C)C(c2ccccc2)CC(c2cccc(O)c2)=[N+]1[O-] (centres undefined)
inactive: dose: 50.0 mg/kg/injection, schedule: Q01DX009 (ip), vehicle: Klucel (hydroxypropylcellulose) (HPC) 97 % of control | dose: 100.0 mg/kg/injection, schedule: Q01DX009 (ip), vehicle: Klucel (hydroxypropylcellulose) (HPC) 97 % of control | dose: 200.0 mg/kg/injection, schedule: Q01DX009 (ip), vehicle: Klucel (hydroxypropylcellulose) (HPC) 101 % of control

O=C(C=C(C(F)(F)F)C(F)(F)F)c1ccc(C(=O)C=C(C(F)(F)F)C(F)(F)F)cc1
inactive: [2] 118 % of control | [1] 100 % of control

CCN(CC)c1ccc(N=Nc2ccc(Br)cn2)c(O)c1
inactive: dose: 60.0 mg/kg/injection, schedule: Q01DX005 (ip), vehicle: Klucel + Tween-80 104 % of control | dose: 120.0 mg/kg/injection, schedule: Q01DX005 (ip), vehicle: Klucel + Tween-80 95 % of control | dose: 240.0 mg/kg/injection, schedule: Q01DX005 (ip), vehicle: Klucel + Tween-80 92 % of control

CC12N=C1CCCCCCCCCCCC2=O (centres undefined)
inactive: [12] 101 % of control | [13] 100 % of control | [14] 108 % of control
